Laboratory results as given in PubChem BioAssay AID2060602 (Molecular Pharmacology Branch, DTP, NCI, 2025).
Several values for one entry are separate records, joined by “and”; a condition that tells them apart may be missing. Identical values can stand only once.

System: 648629-189-R-J1-PDC complex spheroids viability
Assay: Anticancer human tumor 648629-189-R-J1-PDC patient-derived bladder carcinoma cell line growth inhibition [CLK]
Settings: for viability, T/C: stronger effect = lower value
Method in brief: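 Patient-derived tumor cells grown as complex spheroids with HUVEC endothelial cells and mesenchymal stem cells, treated with drug combinations. Concentrations descend in half-log steps from near clinical Cmax, or from 10 microM if Cmax unknown.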

[1] = curve of first compound, second compound 0.0316 µM
[2] = curve of first compound, second compound 0.1 µM
[3] = curve of first compound, second compound 0.316 µM
[4] = curve of first compound, second compound 1 µM
[5] = curve of first compound, second compound 3.16 µM
[6] = curve of first compound, second compound 10 µM
[7] = second compound 0.0316 µM, first compound 0.0316 µM
[8] = second compound 0.0316 µM, first compound 0.1 µM
[9] = second compound 0.0316 µM, first compound 0.316 µM
[10] = second compound 0.0316 µM, first compound 1 µM
[11] = second compound 0.0316 µM, first compound 3.16 µM
[12] = second compound 0.0316 µM, first compound 10 µM
[13] = second compound 0.1 µM, first compound 0.0316 µM
[14] = second compound 0.1 µM, first compound 0.1 µM
[15] = second compound 0.1 µM, first compound 0.316 µM
[16] = second compound 0.1 µM, first compound 1 µM
[17] = second compound 0.1 µM, first compound 3.16 µM
[18] = second compound 0.1 µM, first compound 10 µM
[19] = second compound 0.316 µM, first compound 0.0316 µM
[20] = second compound 0.316 µM, first compound 0.1 µM
[21] = second compound 0.316 µM, first compound 0.316 µM
[22] = second compound 0.316 µM, first compound 1 µM
[23] = second compound 0.316 µM, first compound 3.16 µM
[24] = second compound 0.316 µM, first compound 10 µM
[25] = second compound 1 µM, first compound 0.0316 µM
[26] = second compound 1 µM, first compound 0.1 µM
[27] = second compound 1 µM, first compound 0.316 µM
[28] = second compound 1 µM, first compound 1 µM
[29] = second compound 1 µM, first compound 3.16 µM
[30] = second compound 1 µM, first compound 10 µM
[31] = second compound 3.16 µM, first compound 0.0316 µM
[32] = second compound 3.16 µM, first compound 0.1 µM
[33] = second compound 3.16 µM, first compound 0.316 µM
[34] = second compound 3.16 µM, first compound 1 µM
[35] = second compound 3.16 µM, first compound 3.16 µM
[36] = second compound 3.16 µM, first compound 10 µM
[37] = second compound 10 µM, first compound 0.0316 µM
[38] = second compound 10 µM, first compound 0.1 µM
[39] = second compound 10 µM, first compound 0.316 µM
[40] = second compound 10 µM, first compound 1 µM
[41] = second compound 10 µM, first compound 3.16 µM
[42] = second compound 10 µM, first compound 10 µM
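For viability, T/C in this document: drug exposure lasted seven days before viability readout; 100% = DMSO vehicle control wells.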

For CC(=O)O[C@H]1C(=O)[C@@]2(C)[C@H]([C@H](OC(=O)c3ccccc3)[C@]3(O)C[C@H](OC(=O)[C@H](O)[C@@H](NC(=O)c4ccccc4)c4ccccc4)C(C)=C1C3(C)C)[C@]1(OC(C)=O)CO[C@@H]1C[C@@H]2O + CN1CCN(c2cc(C(=O)Nc3cc4cc(-c5cnn(C)c5)ccc4cn3)ccn2)CC1, the IC50 [1] was < 31.6 nM, the IC50 [2] was < 31.6 nM and the IC50 [3] was < 31.6 nM. The IC50 [4] was < 31.6 nM, the IC50 [5] was < 31.6 nM and the IC50 [6] was < 31.6 nM. The viability, T/C [7] was 10.9%, the viability, T/C [8] was 8.37% and the viability, T/C [9] was 9.02%. It also gave a viability, T/C [10] of 10.6%, a viability, T/C [11] of 7.39% and a viability, T/C [12] of 9.59%. For the same molecule, the viability, T/C [13] was 7.2%, the viability, T/C [14] was 8.42% and the viability, T/C [15] was 6.79%. For the same molecule, the viability, T/C [16] was 7.78%, the viability, T/C [17] was 8.57% and the viability, T/C [18] was 9.47%. The viability, T/C [19] was 9.01%, the viability, T/C [20] was 9.65% and the viability, T/C [21] was 10.1%. It also gave a viability, T/C [22] of 9.51%, a viability, T/C [23] of 8.91% and a viability, T/C [24] of 11.2%. For the same molecule, the viability, T/C [25] was 0.14%, the viability, T/C [26] was 0.13% and the viability, T/C [27] was 0.87%. For the same molecule, the viability, T/C [28] was 0.11%, the viability, T/C [29] was 0.47% and the viability, T/C [30] was 0.64%. The viability, T/C [31] was 0.07%, the viability, T/C [32] was 1.18% and the viability, T/C [33] was 0.13%. The viability, T/C [34] was 0.09%, the viability, T/C [35] was 0.11% and the viability, T/C [36] was 0.1%. For the same molecule, the viability, T/C [37] was 0.1%, the viability, T/C [38] was 0.13% and the viability, T/C [39] was 0.2%. It also gave a viability, T/C [40] of 0.17%, a viability, T/C [41] of 1.53% and a viability, T/C [42] of 0.16%.
For CC(=O)O[C@H]1C(=O)[C@@]2(C)[C@H]([C@H](OC(=O)c3ccccc3)[C@]3(O)C[C@H](OC(=O)[C@H](O)[C@@H](NC(=O)c4ccccc4)c4ccccc4)C(C)=C1C3(C)C)[C@]1(OC(C)=O)CO[C@@H]1C[C@@H]2O, the viability, T/C (compound 0.0316 µM) was 10.4% and 11.2%, the viability, T/C (compound 0.1 µM) was 10.1% and 12.7% and the viability, T/C (compound 0.316 µM) was 10.1% and 11.7%. The viability, T/C (compound 1 µM) was 12.9% and 13.5%, the viability, T/C (compound 3.16 µM) was 10.8% and 10.5% and the viability, T/C (compound 10 µM) was 13.3% and 15.2%. For the same molecule, the IC50 (curve of compound) was < 31.6 nM.
With CC(=O)O[C@H]1C(=O)[C@@]2(C)[C@H]([C@H](OC(=O)c3ccccc3)[C@]3(O)C[C@H](OC(=O)[C@H](O)[C@@H](NC(=O)c4ccccc4)c4ccccc4)C(C)=C1C3(C)C)[C@]1(OC(C)=O)CO[C@@H]1C[C@@H]2O + CNC(=O)c1ccc(Nc2nc(OC3CCCC3)c3c(-c4ccc5nc(C)oc5c4)c[nH]c3n2)c(OC)c1 the IC50 [1] was < 31.6 nM, the IC50 [2] was < 31.6 nM and the IC50 [3] was < 31.6 nM. For the same molecule, the IC50 [4] was < 31.6 nM, the IC50 [5] was < 31.6 nM and the IC50 [6] was < 31.6 nM. The viability, T/C [7] was 11.1%, the viability, T/C [8] was 9.61% and the viability, T/C [9] was 10%. The viability, T/C [10] was 12.1%, the viability, T/C [11] was 14.1% and the viability, T/C [12] was 15.9%. It also gave a viability, T/C [13] of 13.8%, a viability, T/C [14] of 12.4% and a viability, T/C [15] of 11.7%. It also gave a viability, T/C [16] of 12.5%, a viability, T/C [17] of 13% and a viability, T/C [18] of 28.7%. It also gave a viability, T/C [19] of 40.7%, a viability, T/C [20] of 50.4% and a viability, T/C [21] of 62.9%. It also gave a viability, T/C [22] of 70.5%, a viability, T/C [23] of 76.1% and a viability, T/C [24] of 97.3%. It also gave a viability, T/C [25] of 40.6%, a viability, T/C [26] of 64.3% and a viability, T/C [27] of 58.8%. The viability, T/C [28] was 66.5%, the viability, T/C [29] was 75% and the viability, T/C [30] was 76.9%. It also gave a viability, T/C [31] of 33.9%, a viability, T/C [32] of 47.7% and a viability, T/C [33] of 74.3%. The viability, T/C [34] was 64.2%, the viability, T/C [35] was 67.5% and the viability, T/C [36] was 72.7%. For the same molecule, the viability, T/C [37] was 39.9%, the viability, T/C [38] was 42.5% and the viability, T/C [39] was 59.8%. For the same molecule, the viability, T/C [40] was 64.4%, the viability, T/C [41] was 65.7% and the viability, T/C [42] was 73.2%.
In the case of COc1ccc([C@@H](O)c2cc(-c3ncnc4cc(N5CCOCC5)ccc34)c(F)cc2Cl)nn1, the viability, T/C (compound 0.0316 µM) is reported as 92.5% and 93.4%, the viability, T/C (compound 0.1 µM) is reported as 94.4% and 108% and the viability, T/C (compound 0.316 µM) is reported as 94.7% and 89.7%. The viability, T/C (compound 1 µM) was 75.6% and 85%, the viability, T/C (compound 3.16 µM) was 74.8% and 70% and the viability, T/C (compound 10 µM) was 40.1% and 39.5%. For the same molecule, the IC50 (curve of compound) was 7050 nM and 6680 nM.
With CNC(=O)c1ccc(Nc2nc(OC3CCCC3)c3c(-c4ccc5nc(C)oc5c4)c[nH]c3n2)c(OC)c1 the viability, T/C (compound 0.0316 µM) was 108% [middle of 12 runs], the viability, T/C (compound 0.1 µM) was 88.3% [middle of 12 runs] and the viability, T/C (compound 0.316 µM) was 28% [middle of 12 runs]. For the same molecule, the viability, T/C (compound 1 µM) was 19.8% [middle of 12 runs], the viability, T/C (compound 3.16 µM) was 19% [middle of 12 runs] and the viability, T/C (compound 10 µM) was 20% [middle of 12 runs]. For the same molecule, the IC50 (compound alone, run of 08/01/2023) was 209 nM [middle of 10 runs].
